Measurements taken from US10344019B2 (priority 2010, dated 2019).
Like-named read-outs stand apart in the source and are kept apart here.

What was measured:
Format in all cases: cell-based
[1] = test system: HCV 1a RLuc cells (dicistronic genotype 1a H77 replicon, RLuc reporter); test: microbe, parasite or virus in culture; conditions: Hepatitis C virus, read-out: 1a
Procedure, shortened: (§1)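 Replicon cells stably carrying the listed RLuc-encoding dicistronic replicons were seeded and treated with DMSO serial dilutions of compound (10 mM stocks) diluted into culture medium. After 72 h, cells were lysed and Renilla luciferase activity measured. EC50 was derived by non-linear regression.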

[2] = test system: HCV 1b RLuc cells (dicistronic genotype 1b Con1 replicon, RLuc reporter); test: microbe, parasite or virus in culture; conditions: Hepatitis C virus, read-out: 1b (nM)
Procedure, shortened: as §1

[3] = test system: HCV 2a JFH-1 Rluc cells (dicistronic genotype 2a JFH-1 replicon, RLuc reporter); test: microbe, parasite or virus in culture; conditions: Hepatitis C virus, read-out: 2a JFH
Procedure, shortened: as §1

[4] = test system: HCV 2b Rluc cells (NS5A chimeric genotype 2a JFH-1 replicon with genotype 2b MD2b-1 NS5A gene, M31 present); test: microbe, parasite or virus in culture; conditions: Hepatitis C virus, read-out: 2b
Procedure, shortened: as §1

[5] = test system: HCV 3a RLuc cells (NS5A chimeric genotype 1b Con1 replicon with consensus genotype 3a NS5A gene); test: microbe, parasite or virus in culture; conditions: Hepatitis C virus
Procedure, shortened: as §1

[6] = test system: HCV 4a Rluc cells (NS5A chimeric genotype 1b Con1 replicon with genotype 4a NS5A gene); test: microbe, parasite or virus in culture; conditions: Hepatitis C virus, read-out: 4a
Procedure, shortened: as §1

[7] = test system: HCV 2a Rluc cells (NS5A chimeric genotype 2a JFH-1 replicon with genotype 2a J6 strain NS5A gene, M31 present); test: HCV replicon reporter assay, genotype 2a J6 (M31 present); conditions: Hepatitis C virus, read-out: 2a J6
Procedure, shortened: as §1

[8] = read-out: 3a, genotype 3a replicon
[9] = genotype 2a JFH-1 RLuc replicon
[10] = read-out: 3a, genotype 3a NS5A chimeric replicon

Compound	EC50 ([1]; genotype 1a replicon) [nM]	EC50 [2] [nM]	EC50 ([3]; genotype 2a JFH-1 replicon) [nM]	EC50 [4] [nM]	EC50 [5, 8] [nM]	EC50 [6] [nM]	EC50 [7] [nM]	EC50 ([1]; genotype 1a H77 RLuc replicon) [nM]	EC50 [3, 9] [nM]	EC50 [5, 10] [nM]	EC50 ([1]; 72 h, Table 1, genotype 1a H77 replicon, 72 hours) [nM]	EC50 ([2]; 72 h) [nM]	EC50 ([3]; 72 h, Table 1, genotype 2a JFH-1 replicon, 72 hours) [nM]	EC50 ([5]; read-out: 3a, Table 1, genotype 3a NS5A chimeric replicon) [nM]	EC50 ([1]; genotype 1a H77 replicon, RLuc reporter) [nM]	EC50 ([3]; genotype 2a JFH-1 replicon, RLuc reporter) [nM]	EC50 ([5]; read-out: 3a, genotype 3a NS5A chimeric 1b Con1 replicon) [nM]
COC[C@H]1C[C@@H](c2nc3ccc4cc(-c5ccc(-c6cnc([C@@H]7CCCN7C(=O)[C@H](NC(=O)OC)c7ccccc7)[nH]6)cc5)ccc4c3[nH]2)N(C(=O)[C@@H](NC(=O)OC)C(C)C)C1 [Example 415]	0.001 to 0.999	0.034	0.001 to 0.999	0.001 to 0.999	0.001 to 0.99	0.001 to 0.99	0.001 to 0.999										
COC[C@H]1C[C@@H](c2ncc(-c3ccc(-c4ccc(-c5cnc([C@@H]6CC[C@H](C)N6C(=O)[C@@H](NC(=O)OC)C(C)C)[nH]5)cc4)cc3)[nH]2)N(C(=O)[C@H](NC(=O)C2CC2)c2ccccc2)C1 [Example 591]		0.016		0.001 to 0.999		0.001 to 0.99	0.001 to 0.999	0.001 to 0.999	0.001 to 0.999	0.001 to 0.99							
CC[C@H](NC(=O)OC)C(=O)N1CCC[C@H]1c1ncc(-c2ccc3c4c(ccc3c2)-c2ccc(-c3cnc([C@@H]5CCCN5C(=O)[C@H](NC(=O)OC)c5ccccc5)[nH]3)cc2CO4)[nH]1 [Example 12]				> 44		0.001 to 0.99	> 44				0.001 to 0.999	0.008	0.001 to 0.999	0.001 to 0.99			
COC[C@H]1C[C@@H](c2nc3ccc4cc5c(cc4c3[nH]2)OCc2cc(-c3cnc([C@@H]4CCCN4C(=O)[C@H](NC(=O)C4CC4)c4ccccc4)[nH]3)ccc2-5)N(C(=O)[C@@H](NC(=O)OC)C(C)C)C1 [Example 510]		0.05		0.001 to 0.999		0.001 to 0.99	0.001 to 0.999	0.001 to 0.999	0.001 to 0.999	0.001 to 0.99							
CC(C)(C)C(=O)N[C@@H](C(=O)N1CCC[C@H]1c1ncc(-c2cc3c4c(c2)OCc2cc(-c5cnc([C@@H]6CCCN6C(=O)[C@H](NC(=O)C(C)(C)C)c6ccccc6)[nH]5)cc(c2-4)OC3)[nH]1)c1ccccc1 [Example 466]	0.001 to 0.999	0.042	0.001 to 0.999	1 to 44	0.001 to 0.99	0.001 to 0.99	1 to 44										
COC(=O)N[C@H](C(=O)N1[C@@H]2CC[C@@H](C2)[C@H]1c1nc2ccc3cc(-c4ccc5c(ccc6nc([C@@H]7CCCN7C(=O)[C@H](NC(=O)N7CCOCC7)c7ccccc7)[nH]c65)c4)ccc3c2[nH]1)C(C)C [Example 358]	0.001 to 0.999	0.057	0.001 to 0.999	0.001 to 0.999	0.001 to 0.99	0.001 to 0.99	0.001 to 0.999										
COC(=O)N[C@H](C(=O)N1CCC[C@H]1c1ncc(-c2ccc3cc(-c4ccc(-c5cnc([C@@H]6CC(F)(F)CN6C(=O)[C@H](NC(=O)OC)c6ccccc6)[nH]5)cc4)ccc3c2)[nH]1)C(C)C [Example 260]		0.004		> 44		0.001 to 0.99	> 44								0.001 to 0.999	0.001 to 0.999	0.001 to 0.99
O=C(N[C@@H](C(=O)N1CCC[C@H]1c1ncc(-c2cc3c4c(c2)OCc2cc(-c5cnc([C@@H]6CCCN6C(=O)[C@H](NC(=O)c6cccnc6)c6ccccc6)[nH]5)cc(c2-4)OC3)[nH]1)c1ccccc1)c1cccnc1 [Example 469]	0.001 to 0.999	0.752	0.001 to 0.999	0.001 to 0.999	0.001 to 0.99	0.001 to 0.99	0.001 to 0.999										
COC(=O)N[C@H](C(=O)N1CCC[C@H]1c1nc(Cl)c(-c2ccc(-c3ccc4c(ccc5nc([C@@H]6[C@H]7CC[C@H](C7)N6C(=O)[C@@H](NC(=O)OC)C(C)C)[nH]c54)c3)cc2)[nH]1)C(C)C [Example 386]	0.001 to 0.999	0.015	0.001 to 0.999	> 44	0.001 to 0.99	0.001 to 0.99	> 44										
COC(=O)N[C@H](C(=O)N1CC2(C[C@H]1c1nc3ccc4cc(-c5ccc6c(c5)CCc5nc(C7CCCN7C(=O)[C@H](NC(=O)OC)c7ccccc7)[nH]c5-6)ccc4c3[nH]1)OCCO2)C(C)C (stereo partly shown) [Example 365]	0.001 to 0.999	0.11	0.001 to 0.999	0.001 to 0.999	0.001 to 0.99	0.001 to 0.99	0.001 to 0.999										
